Laboratory results from US7026458B2, “High light fastness reactive red dyes” (DyStar Textilfarben GbmH & Co. Deutschland KG, priority 2003, dated 2006).

Assay: Solubility in 90 g/L salt solution at 50° C.
Type: physicochemical
Description: 9% w/v solutions of Dyestuff (Ia) and of Dyestuff (5) were prepared at 50° C. and salt added to produce a 90 g/L salt solution. After 30 mins, 4.2% of Dyestuff (Ia) remained in solution whilst only 2.8% of Dyestuff (5) remained in solution. Thus Dyestuff (Ia) is 50% more soluble in 90 g/L salt at 50° C. than Dyestuff (5). This factor can be crucial as dyeings are carried out at high salt concentrations and better salt solubility can avoid problems with unlevel exhaustion onto the fibre from an exhaust dyebath.

dyestuff remained in solution (9% w/v solution prepared at 50° C., salt added to give 90 g/L salt solution, after 30 mins): 4.2%
more soluble than Dyestuff (5) (in 90 g/L salt at 50° C., relative to Dyestuff (5)): 50%
Compound: Cc1ccc(Nc2nc(Cl)nc(Nc3ccc(/N=N/c4c(N)c(S(=O)(=O)O)cc5cc(S(=O)(=O)O)cc(O)c45)c(S(=O)(=O)O)c3)n2)c(Nc2nc(Cl)nc(Nc3ccc(/N=N/c4c(N)c(S(=O)(=O)O)cc5cc(S(=O)(=O)O)cc(O)c45)c(S(=O)(=O)O)c3)n2)c1 [Dyestuff (Ia)]
